Measured values from ChEMBL document CHEMBL1131707, “Methionyl adenylate analogues as inhibitors of methionyl-tRNA synthetase” (1999).
Values after ≈ are worked out from the molar mass of the structure shown.

How the values were obtained:
[1] = tested on: Staphylococcus aureus; experiment: Antibacterial activity of compound was determined against Staphylococcus aureus 1538p; type: functional
[2] = tested on: Escherichia coli; experiment: Antibacterial activity of compound was determined against Escherichia coli JM109; type: functional
[3] = tested on: Bacillus cereus; experiment: Antibacterial activity of compound was determined against Bacillus cereus ATCC 27348; type: functional
[4] = tested on: Staphylococcus epidermidis; experiment: Antibacterial activity of compound was determined against […] 887E; type: functional
[5] = tested on: Salmonella typhimurium; experiment: Antibacterial activity of compound was determined against Salmonella Typhimurium 14028; type: functional, Salmonella enterica subsp. enterica serovar Typhimurium; details: Salmonella enterica
[6] = tested on: Klebsiella pneumoniae; experiment: Antibacterial activity of compound was determined against Klebsiella pneumoniae 2011E; type: functional
[7] = tested on: Pseudomonas aeruginosa; experiment: Antibacterial activity of compound was determined against Pseudomonas aeruginosa 1912; type: functional
[8] = tested on: Klebsiella aerogenes; experiment: Antibacterial activity of compound was determined against Klebsiella aerogenes 1976E; type: functional

Row | SMILES | MIC [1] | MIC [2] | MIC [3] | MIC [4] | MIC [5] | MIC [6] | MIC [7] | MIC [8]
1 | CSCC[C@H](N)C(=O)OC[C@H]1O[C@@H](n2cnc3c(N)ncnc32)[C@H](O)[C@@H]1O | > 64 µg/mL | 0.5 µg/mL (≈ 1.25 µM) | 32 µg/mL (≈ 80.3 µM) | > 64 µg/mL | > 64 µg/mL | > 64 µg/mL | > 64 µg/mL | > 64 µg/mL
2 | CSCC[C@H](N)C(=O)NOC[C@H]1OC(n2cnc3c(N)ncnc32)[C@H](O)[C@@H]1O (stereo not given in full) | > 64 µg/mL | 8 µg/mL (≈ 19.3 µM) | > 64 µg/mL | > 64 µg/mL | > 64 µg/mL | > 64 µg/mL | > 64 µg/mL | > 64 µg/mL
3 | CSCC[C@H](N)C(=O)N(O)C[C@H]1OC(n2cnc3c(N)ncnc32)[C@H](O)[C@@H]1O (stereo not given in full) | > 64 µg/mL | 0.5 µg/mL (≈ 1.21 µM) | 8 µg/mL (≈ 19.3 µM) | > 64 µg/mL | > 64 µg/mL | > 64 µg/mL | > 64 µg/mL | > 64 µg/mL

Results, then the molecule that gave them:

Row | MIC [1] | MIC [2] | MIC [3] | MIC [4] | MIC [5] | MIC [6] | MIC [7] | MIC [8] | SMILES
4 | > 64 µg/mL | 0.5 µg/mL (≈ 3.04 µM) | > 64 µg/mL | > 64 µg/mL | 8 µg/mL (≈ 48.7 µM) | > 64 µg/mL | > 64 µg/mL | 4 µg/mL (≈ 24.4 µM) | CSCC[C@H](N)C(=O)NO
5 | > 64 µg/mL | 1 µg/mL (≈ 2.52 µM) | > 64 µg/mL | > 64 µg/mL | > 64 µg/mL | > 64 µg/mL | > 64 µg/mL | > 64 µg/mL | CSCC[C@H](N)C(=O)NC[C@H]1OC(n2cnc3c(N)ncnc32)[C@H](O)[C@@H]1O (stereo not given in full)
